Results taken from PubChem BioAssay (NCI).
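Assay format: 96-well plates, 48-hour exposure. TGI is the concentration that stops growth completely.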

Experiments:
Assay in all cases: NCI tumour cell line growth inhibition, 48 h
HOP-18 NSCLC = system: HOP-18 NSCLC
SN12K1 renal = system: SN12K1 renal
P388/ADR leukemia = system: P388/ADR leukemia
P388 leukemia = system: P388 leukemia
RXF-631 renal = system: RXF-631 renal

Row | SMILES | TGI (HOP-18 NSCLC) | TGI (SN12K1 renal) | TGI (P388/ADR leukemia) | TGI (P388 leukemia) | TGI (RXF-631 renal)
1 | COc1ccc(-c2nnc3c4ccccc4sn23)cc1 | 83.9 µM | – | – | – | –
2 | O=C1CNC(=O)N1 | > 1120 µM | > 1120 µM | > 630 µM | > 520 µM | –
3 | CC1(C)CCCC2(C)[C@@H]1CC[C@]13C[C@](C)(CC[C@@H]21)[C@@H]3CO (stereo partly specified) | – | – | – | – | > 100 µM
